Test results from patent publication US9023853B2, “Janus kinase 2 (JAK2) inhibitor for the treatment of lupus” (Cephalon, Inc., priority 2010, dated 2015).

Key:
Format in all cases: in vivo, mouse
CXCL10/IP-10 = assay: Serum CXCL10/IP-10 in NZM mice
Description: (§1) For the processing of serum samples for cytokine analysis, frozen plasma at −80° C. was thawed on ice, vortexed, and centrifuged for 10 minutes to remove debris and aggregates. A total of 25-50 μL of serum was used for Luminex® assays following the manufacturer's instructions. Ten different mouse cytokines were measured using the mouse cytokine 10-plex bead kit (Invitrogen, Carlsbad, Calif., no. LMC0001). Briefly, filter plates (Millipore, Billerica, Mass., no. MAIPSWU10), were pre-wet with 200 μL of wash solution (kit component) and 25 μL of beads were added per well. […]
(§2) Age mated, female, NZM or NZW/LacJ, mice were matured for the study of lupus nephritis for a total of 7 months or 210 days at which time urine was collected for proteinuria detection. Mice with 0.5-1.0 mg/ml of urine protein as determined by an optical density-based total protein precipitation assay and cross-checked for 30-300 mg/dl of protein as determined by a stick assay were considered proteinuria positive and selected for study entry. […] End-stage lupus nephritis was evaluated by histopathology and scored by a board certified pathologist for the assessment of total renal damage in diseased animals using the scoring method described by Smith et al (Smith, Dong et al. 2007). […]

[1] = test system: c-telopeptide collagen type I cross-linker; CTx; assay: Osteoclast activity: serum bone resorption biomarker CTx in NZM mice
Text: Vehicle included 3% DMSO, 10% Solutol and 87% PBS.

IL-12 [2] = assay: Serum IL-12 (Luminex) in NZM mice
Description: as §1, §2

IL-13 = assay: Serum IL-13 in NZM mice
Description: as §1, §2

IL-12 [3] = assay: Serum IL-12 (Luminex) in MRL/lpr mice
Description: For the processing of serum samples for cytokine analysis, frozen plasma at -80° C. was thawed on ice, vortexed, and centrifuged for 10 minutes to remove debris and aggregates. A total of 25-50 μL of serum was used for Luminex® assays following the manufacturer's instructions. Ten different mouse cytokines were measured using the mouse cytokine 10-plex bead kit (Invitrogen, Carlsbad, Calif., no. LMC0001). Briefly, filter plates (Millipore, Billerica, Mass., no. […]10), were pre-wet with 200 μL of wash solution (kit component) and 25 μL of beads were added per well. Serum samples were diluted and a total volume of 50 μL was added per well (ie, 25 μL of sample serum plus 25 μL of assay diluent as provided by the manufacturer). Plates with beads were incubated for 2 hours at room temperature (RT) on an orbital shaker in the dark. At the end of the incubation, plate(s) were washed twice in kit buffer, secondary biotinylated antibody was added at a 1:10 dilution (100 μL) in biotin diluent provided with the kit. Plates were incubated at RT for 1 hour in the dark then washed twice in kit buffer. Strepavidin in assay diluent was added at 100 μL per well, then incubated for 30 minutes at RT in the dark. The plates were washed 3 times then 100 μL of kit wash solution was added and agitated for 2-3 minutes at RT in the dark. […]

[4] = test system: anti-chromatin antibody secreting cells (ASCs); assay: Anti-chromatin antibody secreting B-cell Elispot, MRL/lpr spleen; details: MRL/lpr mice; 100 mg/kg; p<0.001
Description: B-cell Elispot components were ordered from MabTech (Nacka Strand, Sweden) and nitrocellulose IP filter plates were ordered from Millipore (Billerica, Mass.). […] Spleens were processed using glass homogenization, filtered through a 60 μm sterile cell strainer and red blood cells (RBCs) lysed using BioLegend (San Diego, Calif.) lysis buffer. Processed splenocytes were added to each well in culture medium. To avoid skewing of true ex vivo frequencies of antibody secreting cell types (ASCs), cells were not stimulated with a polyclonal mitogen like LPS, but rather incubated in media alone to allow monitoring of genuine ex vivo antibody release. Anti-mouse pan-IgG was used as a positive control for total IgG producing ASCs and was used to normalize results. Frequencies for each antigen were identified in an initial test phase for each model. […] Different numbers of splenocytes were added for different antigens due to saturation limits of spot frequencies per well. These limits were previously established. B-cell Elispots were incubated overnight at 37° C. To develop each assay, secondary antibody was added to each well, incubated, washed and alkaline phosphatase strepavidin was used as the conjugate; substrate used was BCIP-NBT. Plates were developed until spots were visible. […]

TNFα = assay: Serum TNFα in NZM mice
Description: as §1, §2

## CN1CCN(c2cccc(Nc3nc4c(-c5ccc(S(C)(=O)=O)cc5)cccn4n3)c2)CC1 [COMPOUND A, [8-(4-methanesulfonyl-phenyl)-[1,2,4]triazolo[1,5-a]pyridin-2-yl]-[3-(4-methyl-piperazin-1-yl)-phenyl]-amine]
CXCL10/IP-10; 55 mg/kg
  serum CXCL10/IP-10 decrease compared to vehicle: 47.3%
CXCL10/IP-10; 100 mg/kg
  serum CXCL10/IP-10 decrease compared to vehicle: 80.0%
[1]; 55 mg/kg
  serum CTx decrease vs. vehicle: 37.8%
[1]; 100 mg/kg
  serum CTx decrease vs. vehicle: 46.7%
IL-12 [2]; 55 mg/kg
  serum IL-12 decrease compared to vehicle: 99.4%
IL-12 [2]; 100 mg/kg
  serum IL-12 decrease compared to vehicle: 99.9%
IL-13; 55 mg/kg
  serum IL-13 decrease compared to vehicle: 86.2%
IL-13; 100 mg/kg
  serum IL-13 decrease compared to vehicle: 79.5%
IL-12 [3]; 55 mg/kg p.o. b.i.d.
  serum IL-12 decrease compared to vehicle: 50.7%
IL-12 [3]; 100 mg/kg p.o. b.i.d.
  serum IL-12 decrease compared to vehicle: 56.1%
[4]
  frequency of anti-chromatin ASCs in the spleen, decrease vs vehicle: 89.1%
TNFα; 55 mg/kg
  serum TNFα decrease compared to vehicle: 92.3%
TNFα; 100 mg/kg
  serum TNFα decrease compared to vehicle: 88.3%
